Results from patent US12629378B2, “Treatment of infantile hemangioma” (Arkayli Biopharma Inc., priority 2019, dated 2026).
≈ marks a conversion by molar mass, not a printed value.

Assays:
[1] = cited from earlier work; for Half-Life: in vivo; for distribution half-life: delivered intravenously
[2] = children, after an oral dose; cited from earlier work
[3] = cited from earlier work
[4] = test system: beta adrenergic receptors; conditions: times more potent; cited from earlier work
[5] = drop (0.05 mL) of timolol 0.5% solution to the eye of an adult; cited from earlier work
[6] = children with pediatric glaucoma, intraocular; cited from earlier work
[7] = cited from earlier work; remark: listed apart in the source
[8] = adults; cited from earlier work
[9] = test system: beta adrenergic receptors; conditions: fraction of the potency of Esmolol; cited from earlier work
[10] = Esmolol solubility in various excipients; type: physicochemical
Description: Knowing the solubility of a drug in different excipients and chemical enhancers is important in optimizing the saturation solubility of the drug in topical and transdermal formulations. Here below is a table (Table 1) showing the solubility of esmolol in several excipients and chemical enhancers. The solubility of Esmolol was higher in hydrophilic excipients and lower in the more lipophilic excipients. Several of these compounds were used to prepare the formulations in Example 2, such as the co-enhancing system of oleyl alcohol and propylene glycol.

CC(C)NCC(O)COc1cccc2ccccc12 (stereo not shown) [Propranolol]
Half-Life [1]: 4 to 5 h | time of peak effect on blood pressure and heart rate [2]: around 2 hours

CC(C)(C)NC[C@H](O)COc1nsnc1N1CCOCC1 [Timolol]
LogP [3]: 1.4 | Half-Life [1]: 2.5 to 5 h | potency compared with propranolol [4]: 4-10 times | fraction of each drop systemically absorbed through the ocular mucosa [5]: approximately 80% | systemic adverse effects (bradycardia, hypoglycemia, bronchial hyperreactivity), share of children [6]: 3-4% | plasma samples in which timolol was detected ([7]; 86/92 samples, applied to skin over IH): 93% | plasma level normalized for dose, mean ([7]; applied to skin over IH): 24.1 ± 62.7 ng/mL/mg | plasma level normalized for dose, median ([7]; applied to skin over IH): 3 ng/mL/mg | plasma level normalized for dose, range ([7]; applied to skin over IH): 0.06 to 424 ng/mL/mg | plasma level, median ([7]; applied to skin over IH): 0.98 ng/mL | plasma level, range ([7]; applied to skin over IH): 0.03 to 106 ng/mL | samples with plasma levels >0.2 ng/mL ([7]; applied to skin over IH): 80% | samples between 0.020-0.2 ng/mL ([7]; of 86 samples): 12/86 | subjects with plasma levels ≥10 ng/mL ([7]; similar to intravenous administration): Ten | plasma concentration demonstrated to have measurable systemic beta-blocking activity [8]: 0.2 ng/mL

CC(C)NCC(O)COc1ccc(CCC(=O)O)cc1 (stereo not shown) [inactive metabolite]
potency relative to Esmolol [9]: 1/1500

C=CCOc1ccccc1OCC(O)CNC(C)C (stereo not shown) [Oxprenolol]
LogP [3]: 2.1 | Half-Life [1]: 1 to 2 h

CC1(C)OC[C@@H](COC(=O)CCc2ccc(OC[C@@H](O)CNCCNC(=O)N3CCOCC3)cc2)O1 [Landiolol, [(4S)-2,2-dimethyl-1,3-dioxolan-4-yl]methyl 3-[4-[(2S)-2-hydroxy-3-[2-(morpholine-4-carbonylamino)ethylamino]propoxy]phenyl]propanoate]
LogP [3]: 0.44 | distribution half-life [1]: about 2 minutes | Half-Life [1]: 0.05 to 0.1 h

CC(C)(C)NCC(O)COc1cccc2c1CC(O)C(O)C2 (stereo not shown) [Nadolol]
LogP [3]: 1 | Half-Life [1]: 14 to 25 h

CC(C)(C)NC[C@H](O)COc1ccccc1C1CCCC1 [Penbutolol]
LogP [3]: 4.15 | Half-Life [1]: 20 h

COCCc1ccc(OCC(O)CNC(C)C)cc1 (stereo not shown) [Metoprolol]
Half-Life [1]: 3 to 7 h

CC(C)(C)NCC(O)COc1cccc2c1CCC(=O)N2 (stereo not shown) [Corteolol]
Half-Life [1]: 6 to 8 h

COC(=O)CCc1ccc(OCC(O)CNC(C)C)cc1 (stereo not shown) [Esmolol, methyl 3-[4-[2-hydroxy-3-(propan-2-ylamino)propoxy]phenyl]propanoate]
Sat. Conc. ([10]; Castor Oil (CO)): 23.4 mg/mL | Sat. Conc. ([10]; Cotton seed oil (CSO)): 101.9 mg/mL | Sat. Conc. ([10]; DMSO): 592.1 mg/mL | Sat. Conc. ([10]; Dipropylene Glycol): 257.6 mg/mL | Sat. Conc. ([10]; Ethanol): 310.4 mg/mL | Sat. Conc. ([10]; Glyceryl monooleate (GMO)): 157.3 mg/mL | Sat. Conc. ([10]; Isopropyl myristate (IPM)): 196.2 mg/mL | Sat. Conc. ([10]; Lauroglycol FCC (LG)): 122.2 mg/mL | Sat. Conc. ([10]; Oleic acid (OA)): 56.9 mg/mL | Sat. Conc. ([10]; Oleyl Alcohol): 112.2 mg/mL | Sat. Conc. ([10]; Olive Oil (OO)): 58.1 mg/mL | Sat. Conc. ([10]; PEG-400): 248.6 mg/mL | Sat. Conc. ([10]; Propylene Glycol): 450.7 mg/mL | Sat. Conc. ([10]; Sesame oil (SO)): 56.6 mg/mL | Sat. Conc. ([10]; Transcutol P): 344.5 mg/mL | solubility thermodynamic ([10]; water, read-out: Sat. Conc.): 704 mg/mL (≈ 2380 mM) | distribution half-life [1]: about 2 minutes | Half-Life [1]: 0.15 h

CC(C)NCC(O)COc1cccc2[nH]ccc12 (stereo not shown) [Pindolol]
LogP [3]: 1.75 | Half-Life [1]: 3 to 4 h
